Measured values: ChEMBL document CHEMBL1201862, “PubChem BioAssay data set” (2004)
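In this assay, cells in 96-well plates receive the compound at five concentrations for 48 hours. Endpoints are linearly interpolated between the surrounding concentrations. GI50: concentration for 50% inhibition of growth.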 Activity calls are given as the source filed them. No stated cut-off is given here; in the data, active = GI50 up to about 1.1 µM and inactive = higher.

Columns and labels:
Assay in all cases: NCI-60 cell line screen, 48 h
786-0 = system: 786-0
EKVX = system: EKVX
HCT-116 = system: HCT-116
HCT-15 = system: HCT-15
HL-60 = system: HL-60
KM12 = system: KM12
MOLT-4 = system: MOLT-4
NCI-H226 = system: NCI-H226
OVCAR-4 = system: OVCAR-4
SK-MEL-28 = system: SK-MEL-28
SN12C = system: SN12C
SNB-75 = system: SNB-75
TK-10 = system: TK-10
UACC-62 = system: UACC-62
A498 = system: A498
CAKI-1 = system: CAKI-1
HOP-62 = system: HOP-62

SMILES	GI50 (786-0)	GI50 (EKVX)	GI50 (HCT-116)	GI50 (HCT-15) [µM]	GI50 (HL-60)	GI50 (KM12)	GI50 (MOLT-4)	GI50 (NCI-H226)	GI50 (OVCAR-4)	GI50 (SK-MEL-28)	GI50 (SN12C)	GI50 (SNB-75)	GI50 (TK-10)	GI50 (UACC-62)	GI50 (A498)	GI50 (CAKI-1)	GI50 (HOP-62)
CC(=O)C1C(c2ccccc2)C2(C)OC(=O)C(C#N)C12C (stereo not drawn)	> 100 µM (inactive)	> 100 µM (inactive)	> 100 µM (inactive)	> 100	> 100 µM (inactive)	> 100 µM (inactive)	> 100 µM (inactive)	> 100 µM (inactive)	> 100 µM (inactive)	> 100 µM (inactive)	> 100 µM (inactive)	> 100 µM (inactive)	> 100 µM (inactive)	> 100 µM (inactive)			
O=C1NC2(CCCCCC2)C2CCCCCCC12O (stereo not drawn)	> 100 µM (inactive)	> 100 µM (inactive)	> 100 µM (inactive)	> 100	> 100 µM (inactive)	> 100 µM (inactive)	> 100 µM (inactive)		> 100 µM (inactive)	> 100 µM (inactive)	> 100 µM (inactive)	> 100 µM (inactive)	> 100 µM (inactive)	> 100 µM (inactive)	> 100 µM (inactive)	> 100 µM (inactive)	> 100 µM (inactive)
Cn1cnc2nc(Cl)nc(NC(C)(C)C(C)(C)O)c21	> 100 µM (inactive)	> 100 µM (inactive)	> 100 µM (inactive)	> 100	> 100 µM (inactive)	> 100 µM (inactive)	> 100 µM (inactive)	> 100 µM (inactive)	> 100 µM (inactive)		> 100 µM (inactive)	> 100 µM (inactive)	> 100 µM (inactive)	> 100 µM (inactive)	> 100 µM (inactive)	> 100 µM (inactive)	> 100 µM (inactive)
Cc1cc(N(CCC#N)CCC#N)ccc1/C=C(\NC(=O)/C=C/c1ccccc1)NC(=O)Nc1ccccc1C	26.8 µM (inactive)	86.1 µM (inactive)	> 100 µM (inactive)	> 100	> 100 µM (inactive)	> 100 µM (inactive)	> 100 µM (inactive)	22.6 µM (inactive)	26.8 µM (inactive)	> 100 µM (inactive)	77.3 µM (inactive)			46.1 µM (inactive)	65.3 µM (inactive)	69.7 µM (inactive)	
O=c1c2cccc3cccc(c4oc5c6cccc7cccc(c(=O)c5c14)c76)c32	11.2 µM (inactive)	12.2 µM (inactive)	2.25 µM (inactive)	11.4	9.18 µM (inactive)	13.8 µM (inactive)	12.5 µM (inactive)	17 µM (inactive)		13.3 µM (inactive)	13.8 µM (inactive)	14 µM (inactive)	11.6 µM (inactive)	12.8 µM (inactive)	> 100 µM (inactive)	15.8 µM (inactive)	> 100 µM (inactive)
CCCCCCCCC(O)C#CC(N)=O (stereo not drawn)	12.7 µM (inactive)	11.4 µM (inactive)	3.67 µM (inactive)	13.2	10.8 µM (inactive)		16.9 µM (inactive)	10.8 µM (inactive)	2.51 µM (inactive)	15.5 µM (inactive)	7.59 µM (inactive)	3.37 µM (inactive)	16 µM (inactive)	5.16 µM (inactive)	16.4 µM (inactive)	8.67 µM (inactive)	
CCN(CC)CCN1CCc2c([nH]c3ccccc23)C1c1cccnc1 (stereo not drawn)	> 100 µM (inactive)	> 100 µM (inactive)	> 100 µM (inactive)	> 100	99.3 µM (inactive)	> 100 µM (inactive)	> 100 µM (inactive)		> 100 µM (inactive)	> 100 µM (inactive)	> 100 µM (inactive)	91.4 µM (inactive)	> 100 µM (inactive)	> 100 µM (inactive)	> 100 µM (inactive)	> 100 µM (inactive)	> 100 µM (inactive)
Cc1cc2c(=O)c3ccccc3[nH]c2c(C(=O)O)c1C	> 100 µM (inactive)	66.5 µM (inactive)	76 µM (inactive)	> 100	70.8 µM (inactive)	> 100 µM (inactive)	> 100 µM (inactive)		> 100 µM (inactive)	> 100 µM (inactive)	> 100 µM (inactive)	31.6 µM (inactive)		> 100 µM (inactive)	> 100 µM (inactive)	> 100 µM (inactive)	> 100 µM (inactive)
CCOC(=O)C(C(=O)OCC)=C1C=C(c2ccccc2)c2ccccc21	28.5 µM (inactive)	> 100 µM (inactive)	48.9 µM (inactive)	25.8	20.5 µM (inactive)	37.4 µM (inactive)	30.5 µM (inactive)	78.9 µM (inactive)	38.3 µM (inactive)	> 100 µM (inactive)	> 100 µM (inactive)	45.7 µM (inactive)	79.1 µM (inactive)	> 100 µM (inactive)	13.4 µM (inactive)		13.3 µM (inactive)
